In patent US12077534B2, “Aza-heterobicyclic inhibitors of MAT2A and methods of use for treating cancer” (Les Laboratoires Servier SAS, priority 2018, dated 2024):

Tests used:
HCT116 MTAP+/+ = test: Inhibition of cellular proliferation (Cell Titer Glo), HCT116 MTAP+/+; format: cell-based; settings: Homo sapiens, HCT-116, 96 h, 4 days, read-out: 4 Day Relative Growth Inhibition (MTAP +/+)
Procedure, shortened: (§1)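 Isogenic HCT116 MTAP+/+ and MTAP−/− cells treated 24 h after plating with 10-point 3-fold dilutions, then grown 4 days at 37 °C/5% CO2. ATP content read by Cell Titer Glo luminescence, blank-subtracted and normalized to 0.2% DMSO control, plotted as percent proliferation change versus log molar concentration.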

[1] = test system: MAT2A activity (SAM) in HCT116 cells with deleted MTAP gene; test: Cellular assay of target engagement (SAM) by LC-MS/MS; format: cell-based; settings: Homo sapiens, HCT-116; HCT116 MTAP −/−, 72 hrs; read-out: Cell 72 h SAM Inhibition (MTAP −/−)
Procedure, shortened: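 HCT116 MTAP-deleted cells treated with 10-point 3-fold DMSO serial dilutions of compound for 72 hrs at 37° C. Cells lysed in cold 80% methanol/acetic acid extraction buffer with d3-SAM internal standard; SAM quantified by LC-MS/MS (MRM m/z 399.2→250.1).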

MAT2A homodimer = target: T1, MAT2A homodimer (Homo sapiens, UniProt P31153); test: MAT2A biochemical assay (phosphate release, PiColorLock Gold); settings: recombinant MAT2A homodimer, 60 min pre-incubation, 25° C.; read-out: Enzyme Inhibition
T1 construct: inferred from Ni sepharose purification and imidazole elution; made in house; host or cells: SF9 insect cells, recombinant baculovirus (Bac to Bac, pFASTBAC1)
T1 sequence (P31153 whole entry): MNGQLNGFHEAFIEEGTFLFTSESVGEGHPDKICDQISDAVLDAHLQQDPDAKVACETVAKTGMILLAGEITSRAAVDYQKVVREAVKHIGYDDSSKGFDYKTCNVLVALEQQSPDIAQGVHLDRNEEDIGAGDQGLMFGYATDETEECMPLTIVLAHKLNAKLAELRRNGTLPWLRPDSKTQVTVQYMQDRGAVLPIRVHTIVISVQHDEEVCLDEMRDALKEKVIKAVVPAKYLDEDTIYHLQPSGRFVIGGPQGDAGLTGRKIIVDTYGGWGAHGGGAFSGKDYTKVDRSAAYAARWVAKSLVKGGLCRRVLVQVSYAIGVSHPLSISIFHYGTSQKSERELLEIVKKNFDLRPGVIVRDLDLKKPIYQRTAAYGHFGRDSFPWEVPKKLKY
Procedure, shortened: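 Baculovirus/Sf9-expressed, Ni-purified MAT2A homodimer (4 µg/mL in pH 8.0 Tris/KCl/MgCl2 buffer) preincubated 60 min at 25 °C with compound (2% DMSO final). Substrate mix of 500 µM ATP and 400 µM L-methionine added; 60 min at 25 °C; released phosphate quantified colorimetrically against a phosphate standard curve.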

HCT116 MTAP−/− = test: Inhibition of cellular proliferation (Cell Titer Glo), HCT116 MTAP-/-; format: cell-based; settings: Homo sapiens, HCT-116, 96 h, 4 days, read-out: 4 Day Relative Growth Inhibition (MTAP −/−)
Procedure, shortened: as §1

| Compound | IC50 (HCT116 MTAP+/+) [nM] | IC50 [1] [nM] | IC50 (MAT2A homodimer) [nM] | IC50 (HCT116 MTAP−/−) [nM] |
| --- | --- | --- | --- | --- |
| [2H]C([2H])([2H])Oc1ccc(-c2c(=O)n(-c3ccc4nn(C)cc4c3)nc3ccc(OCCF)nc23)cc1 [Example 157] | ≥ 1000 | 100 to 1000 | < 100 | 100 to 1000 |
| CCSc1ccc2nn(-c3ccc4nn(C)cc4c3)c(=O)c(-c3ccc(OC(F)F)cc3)c2n1 [Example 158] | ≥ 1000 | < 100 | < 100 | < 100 |
| CCNc1ccc2nn(-c3ccc4nn(C)cc4c3)c(=O)c(-c3ccc(OC(F)F)cc3)c2n1 [Example 159] | ≥ 1000 | < 100 | < 100 | < 100 |
| Cn1cc2cc(-n3nc4ccc(NCC(F)(F)F)nc4c(-c4ccc(OC(F)F)cc4)c3=O)ccc2n1 [Example 160] | ≥ 1000 | < 100 | < 100 | < 100 |
| [2H]C([2H])([2H])C([2H])([2H])Oc1ccc2nn(-c3ccc4nn(C)cc4c3)c(=O)c(-c3ccc(OC(F)F)cc3)c2n1 [Example 161] | ≥ 1000 | < 100 | < 100 | < 100 |
| Cn1cc2cc(-n3nc4ccc(NC5CC5)nc4c(-c4ccc(OC(F)F)cc4)c3=O)ccc2n1 [Example 162] | ≥ 1000 | < 100 | < 100 | < 100 |
| Cn1cc2cc(-n3nc4ccc(N5CCCC5)nc4c(-c4ccc(OC(F)F)cc4)c3=O)ccc2n1 [Example 163] | ≥ 1000 | > 1000 | < 100 | ≥ 1000 |
| Cn1cc2cc(-n3nc4ccc(SCC(F)(F)F)nc4c(-c4ccc(OC(F)F)cc4)c3=O)ccc2n1 [Example 165] | 100 to 1000 | < 100 | < 100 | < 100 |
| O=c1c(-c2ccc(OC(F)F)cc2)c2nc(OCC(F)F)ccc2nn1-c1ccc2nccn2c1 [Example 170] | ≥ 1000 | < 100 | < 100 | 100 to 1000 |
| O=c1c(-c2ccc(OC(F)F)cc2)c2nc(OCC(F)F)ccc2nn1-c1ccc2c(c1)OCCO2 [Example 177] | 100 to 1000 | < 100 | < 100 | < 100 |
| O=c1c(-c2ccc(OC(F)F)cc2)c2nc(OCC(F)F)ccc2nn1-c1ccc2nncn2c1 [Example 184] | ≥ 1000 | < 100 | < 100 | 100 to 1000 |
| COC1CC=C(n2nc3ccc(OCC(F)F)nc3c(-c3ccc(OC(F)F)cc3)c2=O)CC1 (centres unmarked) [Example 187] | ≥ 1000 | 100 to 1000 | < 100 | ≥ 1000 |
| O=c1c(-c2ccc(OC(F)F)cc2)c2nc(OCC(F)F)ccc2nn1-c1ccncc1 [Example 188] | ≥ 1000 | 100 to 1000 | < 100 | 100 to 1000 |
| CNC(=O)c1ccc(-n2nc3ccc(OCC(F)F)nc3c(-c3ccc(OC(F)F)cc3)c2=O)cc1 [Example 189] | ≥ 1000 | 100 to 1000 | < 100 | 100 to 1000 |
| O=c1c(-c2ccc(OC(F)F)cc2)c2nc(OCC(F)F)ccc2nn1-c1ccc(F)cc1 [Example 191] | ≥ 1000 | 100 to 1000 | 100 to 1000 | ≥ 1000 |
| O=c1c(-c2ccc(OC(F)F)cc2)c2nc(OCC(F)F)ccc2nn1-c1cn[nH]c1 [Example 193] | ≥ 1000 | 100 to 1000 | < 100 | 100 to 1000 |
| Cn1cc2cc(-n3nc4cc(F)c(OCC(F)F)nc4c(-c4ccc(OC(F)F)cc4)c3=O)ccc2n1 [Example 194, 6-(2,2-difluoroethoxy)-4-(4-(difluoromethoxy)phenyl)-7-fluoro-2-(2-methyl-2H-indazol-5-yl)pyrido[3,2-c]pyridazin-3(2H)-one] | ≥ 1000 | 100 to 1000 | < 100 | < 100 |
| CCOc1nc2c(-c3ccc(OC(F)F)cc3)c(=O)n(-c3ccc4nn(C)cc4c3)nc2cc1F [Example 195] | ≥ 1000 | < 100 | < 100 | ≥ 1000 |
| CCNc1nc2c(-c3ccc(OC(F)F)cc3)c(=O)n(-c3ccc4nn(C)cc4c3)nc2cc1F [Example 196] | ≥ 1000 | < 100 | < 100 | < 100 |
| Cn1cc2cc(-n3nc4cc(F)c(NCC(F)(F)F)nc4c(-c4ccc(OC(F)F)cc4)c3=O)ccc2n1 [Example 197] | ≥ 1000 | < 100 | < 100 | < 100 |
| CCOc1ccc2nn(-c3ccc4nn(C)cc4c3)c(=O)c(-c3ccc(Br)cc3)c2n1 [Example 198, 4-(4-bromophenyl)-6-ethoxy-2-(2-methyl-2H-indazol-5-yl)pyrido[3,2-c]pyridazin-3(2H)-one] | ≥ 1000 | < 100 | < 100 | < 100 |
| CC(C)Oc1ccc2nn(-c3ccc4nn(C)cc4c3)c(=O)c(-c3ccc(Br)cc3)c2n1 [Example 199, 4-(4-bromophenyl)-6-isopropoxy-2-(2-methyl-2H-indazol-5-yl)pyrido[3,2-c]pyridazin-3(2H)-one] | ≥ 1000 | < 100 | < 100 | < 100 |

Other lines, results leading:

| IC50 (HCT116 MTAP+/+) [nM] | IC50 [1] [nM] | IC50 (MAT2A homodimer) [nM] | IC50 (HCT116 MTAP−/−) [nM] | Compound |
| --- | --- | --- | --- | --- |
| ≥ 1000 | < 100 | < 100 | < 100 | Cc1c2cc(-n3nc4ccc(OCC(F)F)nc4c(-c4ccc(OC(F)F)cc4)c3=O)ccc2nn1C [Example 166, 6-(2,2-difluoroethoxy)-4-(4-(difluoromethoxy)phenyl)-2-(2,3-dimethyl-2H-indazol-5-yl)pyrido[3,2-c]pyridazin-3(2H)-one] |
| ≥ 1000 | < 100 | < 100 | < 100 | Cn1cnc2ccc(-n3nc4ccc(OCC(F)F)nc4c(-c4ccc(OC(F)F)cc4)c3=O)cc21 [Example 167, 6-(2,2-difluoroethoxy)-4-(4-(difluoromethoxy)phenyl)-2-(1-methyl-1H-benzo[d]imidazol-6-yl)pyrido[3,2-c]pyridazin-3(2H)-one] |
| ≥ 1000 | < 100 | < 100 | 100 to 1000 | CCOc1ccc2nn(-c3ccc4ncccc4c3)c(=O)c(-c3ccc(Cl)cc3)c2n1 [Example 168] |
| < 100 | < 100 | < 100 | < 100 | O=c1c(-c2ccc(OC(F)F)cc2)c2nc(OCC(F)F)ccc2nn1-c1ccc2ncsc2c1 [Example 169] |
| ≥ 1000 | < 100 | < 100 | < 100 | COc1c2cc(-n3nc4ccc(OCC(F)F)nc4c(-c4ccc(OC(F)F)cc4)c3=O)ccc2nn1C [Example 171] |
| ≥ 1000 | < 100 | < 100 | < 100 | COc1nc2ccc(-n3nc4ccc(OCC(F)F)nc4c(-c4ccc(OC(F)F)cc4)c3=O)cc2n1C [Example 172] |
| 100 to 1000 | < 100 | < 100 | < 100 | Cc1c2cc(-n3nc4ccc(OCC(F)F)nc4c(-c4ccc(Cl)cc4)c3=O)ccc2nn1C [Example 173] |
| ≥ 1000 | < 100 | < 100 | < 100 | COc1c2cc(-n3nc4ccc(OCC(F)F)nc4c(-c4ccc(Cl)cc4)c3=O)ccc2nn1C [Example 174] |
| 100 to 1000 | < 100 | < 100 | < 100 | [2H]C([2H])([2H])Oc1c2cc(-n3nc4ccc(OCC(F)F)nc4c(-c4ccc(OC(F)F)cc4)c3=O)ccc2nn1C [Example 175] |
| 100 to 1000 | < 100 | < 100 | 100 to 1000 | O=c1c(-c2ccc(OC(F)F)cc2)c2nc(OCC(F)F)ccc2nn1-c1ccc2nnccc2c1 [Example 176] |
| 100 to 1000 | < 100 | < 100 | < 100 | O=c1c(-c2ccc(OC(F)F)cc2)c2nc(OCC(F)F)ccc2nn1-c1ccc2c(c1)CCO2 [Example 178] |
| ≥ 1000 | < 100 | < 100 | 100 to 1000 | O=c1c(-c2ccc(OC(F)F)cc2)c2nc(OCC(F)F)ccc2nn1-c1ccc2ncncc2c1 [Example 179] |
| ≥ 1000 | < 100 | < 100 | < 100 | CN1CCOc2ccc(-n3nc4ccc(OCC(F)F)nc4c(-c4ccc(OC(F)F)cc4)c3=O)cc21 [Example 180] |
| 100 to 1000 | < 100 | < 100 | < 100 | Cn1nc2ccc(-n3nc4ccc(OCC(F)F)nc4c(-c4ccc(OC(F)F)cc4)c3=O)cc2n1 [Example 182] |
| 100 to 1000 | < 100 | < 100 | < 100 | O=c1c(-c2ccc(OC(F)F)cc2)c2nc(OCC(F)F)ccc2nn1-c1ccc2ncccc2c1 [Example 183] |
| 100 to 1000 | < 100 | < 100 | 100 to 1000 | O=c1c(-c2ccc(OC(F)F)cc2)c2nc(OCC(F)F)ccc2nn1-c1ccc2nccnc2c1 [Example 192] |
